Patent US7625875B2 (priority 2002, dated 2009)
Where two headings read alike, the source gives them in different places.

How the values were obtained:
[1] = system: HCV; assay: Clinical antiviral activity, serum HCV RNA (Amplicor HCV Monitor), val-mCyd daily for 15 days; settings: 100 mg
[2] = system: HCV genotype 1

## CC(C)C(N)C(=O)OC1[C@@H](CO)O[C@@H](n2ccc(N)nc2=O)[C@@]1(C)O (stereo partly drawn) [val-mCyd, 2-Amino-3-methyl-butyric acid 5-(4-amino-2-oxo-2H-pyrimidine-1-yl)-4-hydroxy-2 hydroxy-methyl-4-methyl-tetrahydro-furan-3-yl ester]
[1]; Day 4
  HCV RNA in Log10 scale, median: 6.46 log10
[1]; Day 8
  Change from baseline (Day 1) in Log10 HCV RNA, mean: −0.21 log10
  Change from baseline (Day 1) in Log10 HCV RNA, median: −0.20 log10
  HCV RNA in Log10 scale, mean: 6.42 log10
  HCV RNA in Log10 scale, median: 6.59 log10
[1]; Day 11
  Change from baseline (Day 1) in Log10 HCV RNA, mean: −0.32 log10
  Change from baseline (Day 1) in Log10 HCV RNA, median: −0.28 log10
  HCV RNA in Log10 scale, mean: 6.36 log10
  HCV RNA in Log10 scale, median: 6.56 log10
[1]; Day 15
  Change from baseline (Day 1) in Log10 HCV RNA, mean: −0.38 log10
  Change from baseline (Day 1) in Log10 HCV RNA, median: −0.43 log10
  HCV RNA in Log10 scale, mean: 6.30 log10
  HCV RNA in Log10 scale, median: 6.41 log10
[1]; Day 16
  Change from baseline (Day 1) in Log10 HCV RNA, mean: −0.39 log10
  Change from baseline (Day 1) in Log10 HCV RNA, median: −0.49 log10
  HCV RNA in Log10 scale, mean: 6.23 log10
  HCV RNA in Log10 scale, median: 6.40 log10
[1]; Day 17
  Change from baseline (Day 1) in Log10 HCV RNA, mean: −0.18 log10
  Change from baseline (Day 1) in Log10 HCV RNA, median: −0.24 log10
  HCV RNA in Log10 scale, mean: 6.65 log10
  HCV RNA in Log10 scale, median: 6.72 log10
[1]; Day 22
  Change from baseline (Day 1) in Log10 HCV RNA, mean: −0.15 log10
  Change from baseline (Day 1) in Log10 HCV RNA, median: −0.19 log10
  HCV RNA in Log10 scale, mean: 6.53 log10
  HCV RNA in Log10 scale, median: 6.66 log10
[1]; Day 29
  Change from baseline (Day 1) in Log10 HCV RNA, mean: 0.13 log10
  Change from baseline (Day 1) in Log10 HCV RNA, median: −0.12 log10
  HCV RNA in Log10 scale, mean: 6.67 log10
  HCV RNA in Log10 scale, median: 6.71 log10
[1]; Day −1 (pre-treatment)
  HCV RNA in Log10 scale, mean: 6.60 log10
  HCV RNA in Log10 scale, median: 6.75 log10
[2]; 8.3 mg/kg/day dose group, end of treatment (day 7)
  mean reduction from baseline HCV viral load: 0.83 log10
[2]; 8.3 mpk, animal 500, site 1, Day 2
  Change in baseline Log10 HCV RNA viral load: −1.156 log10
[2]; 8.3 mpk, animal 500, site 1, Day 5
  Change in baseline Log10 HCV RNA viral load: −0.4038 log10
[2]; 8.3 mpk, animal 500, site 1, Day 7
  Change in baseline Log10 HCV RNA viral load: −0.8051 log10
[2]; 8.3 mpk, animal 500, site 2, Day 2
  Change in baseline Log10 HCV RNA viral load: −1.079 log10
[2]; 8.3 mpk, animal 500, site 2, Day 5
  Change in baseline Log10 HCV RNA viral load: −0.5503 log10
[2]; 8.3 mpk, animal 500, site 2, Day 7
  Change in baseline Log10 HCV RNA viral load: −1.063 log10
[2]; 8.3 mpk, animal 501, site 1, Day 2
  Change in baseline Log10 HCV RNA viral load: −0.2518 log10
[2]; 8.3 mpk, animal 501, site 1, Day 5
  Change in baseline Log10 HCV RNA viral load: −0.3618 log10
[2]; 8.3 mpk, animal 501, site 1, Day 7
  Change in baseline Log10 HCV RNA viral load: −0.4361 log10
[2]; 8.3 mpk, animal 501, site 2, Day 2
  Change in baseline Log10 HCV RNA viral load: −0.452 log10
[2]; 8.3 mpk, animal 501, site 2, Day 5
  Change in baseline Log10 HCV RNA viral load: −0.7125 log10
[2]; 8.3 mpk, animal 501, site 2, Day 7
  Change in baseline Log10 HCV RNA viral load: −0.9003 log10
[2]; 16.6 mpk, animal 497, site 1, Day 2
  Change in baseline Log10 HCV RNA viral load: −0.7215 log10
[2]; 16.6 mpk, animal 497, site 1, Day 5
  Change in baseline Log10 HCV RNA viral load: −0.907 log10
[2]; 16.6 mpk, animal 497, site 1, Day 7
  Change in baseline Log10 HCV RNA viral load: −1.277 log10
[2]; 16.6 mpk, animal 497, site 2, Day 2
  Change in baseline Log10 HCV RNA viral load: −0.8556 log10
[2]; 16.6 mpk, animal 497, site 2, Day 5
  Change in baseline Log10 HCV RNA viral load: −1.02 log10
[2]; 16.6 mpk, animal 497, site 2, Day 7
  Change in baseline Log10 HCV RNA viral load: −1.514 log10
[2]; 16.6 mpk, animal 498, site 1, Day 2
  Change in baseline Log10 HCV RNA viral load: −0.2947 log10
[2]; 16.6 mpk, animal 498, site 1, Day 5
  Change in baseline Log10 HCV RNA viral load: −0.2814 log10
[2]; 16.6 mpk, animal 498, site 1, Day 7
  Change in baseline Log10 HCV RNA viral load: −0.603 log10
[2]; 16.6 mpk, animal 498, site 2, Day 2
  Change in baseline Log10 HCV RNA viral load: −0.6585 log10
[2]; 16.6 mpk, animal 498, site 2, Day 5
  Change in baseline Log10 HCV RNA viral load: −0.5597 log10
[2]; 16.6 mpk, animal 498, site 2, Day 7
  Change in baseline Log10 HCV RNA viral load: −0.6914 log10
[2]; animal 497, site 2, day 7, pretreatment 535,000
  HCV viral load: 16,500 genomes per ml
